Experimental data published in patent US20230346884A1, “Molecular Targets for Modulation of Dissociative and Associative States” (The Board of Trustees of the Leland Stanford Junior …, priority 2020, published 2023).
Entries after “also recorded” stand apart in the source; their conditions may differ.

Columns and labels:
[1] = tested on: retrosplenial cortex (RSP); experiment: Widefield (pan-cortical) imaging of cortical activity in GCaMP6s mice; conditions: widefield imaging; i.p.; ketamine 50 mg/kg subanesthetic dose; other drugs at doses of b234
Procedure: (2 mg/kg), lidocaine (topical), LSD ((+)-Lysergic acid diethylamide (+)-tartrate (2:1), 0.3 mg/kg), and diazepam (2 mg/kg). […] For anti-depressant effects, human doses are typically 0.3-1 mg/kg, and in mouse 3-10 mg/kg.
As described^8, mice were anesthetized with isoflurane, the scalp was removed, the skull cleaned and dried, and a custom head-plate was cemented to contacts over the cerebellum and in front of the olfactory bulb. The skull was then covered in a thin layer of cyanoacrylate glue (Apollo 2000, Cyberbond), clear dental acrylic (Ortho-Jet, Lang Dental), and clear nail polish (Electron Microscopy Services). […] (0.1 mg/kg) was injected subcutaneously for pain management. […] Imaging was performed on a custom-built fluorescence microscope designed for high light collection efficiency and large field of view. […] Alternating 410 nm and 488 nm illumination for non-Ca^2+ dependent artifact removal was controlled using a microcontroller (Arduino) slaved to the frame output trigger of the camera.
Analysis was performed using custom MATLAB (MathWorks) scripts. Widefield imaging videos were registered to a 2D top-projection atlas generated from the annotated Allen Brain Atlas volume, version CCFv2, in MATLAB (MathWorks), using an affine transformation computed from four manually selected control points. Each video was DF/F normalized, using the median for each pixel over the entire time series as F. The 410 nm channel was then temporally smoothed using a moving average (width=400 ms). The smoothed 410 nm DF/F signal for each pixel was regressed onto the 488 nm DF/F signal for the corresponding pixel, and the regression coefficients were used to scale the 410 nm channel to the 488 nm channel. This scaled 410 nm DF/F signal was then subtracted from the 488 nm DF/F signal to produce a normalized signal for each pixel. For quantification, activity traces were extracted from points centered in five cortical regions (visual, somatosensory, parietal, motor, retrosplenial) on the left hemisphere of the brain. The video data was Gaussian smoothed spatially (radius=2 pixels). Similarly, for fiber photometry recordings, the 410 nm signal was regressed onto the 488 nm signal, the 410 nm signal was scaled by the regression coefficients, and then subtracted from the 488 nm signal.
Each trace (corresponding to either a fiber photometry signal, a cellular two-photon signal, a widefield regional centroid, a widefield pixel, an sEEG trace, or a smoothed spike rate Neuropixels trace) was z-scored, and the power spectral density (PSD) was then estimated using Welch's method (pwelch( ) in Matlab), with a window size of 10*fs (15*fs for human sEEG) where fs is the sampling rate of the signal. The average band power within a specified band (i.e. 1-3 Hz) was then computed by integrating the PSD estimate (bandpower in Matlab). For displaying the traces of individual cells, traces were each zscored by subtracting the mean value of the trace (across the whole recorded time window) and dividing by the standard deviation of the trace. Unless otherwise indicated, the PSD was computed across the time window from minutes 10 to 11 post-injection.

mice [2] = experiment: Open field test; format: in vivo, mouse; conditions: 5 min; vs saline; doses of b234
Excerpt: Open Field Test: Mice were placed in an evenly illuminated 50 cm×50 cm open field test box. Mouse position was captured using a webcam and Viewer software (Biobserve).

mice [3] = experiment: Hot plate test; conditions: for Dissociation-like behavior: disconnection between sensory-detection and affective responses: other drug classes, doses of b234
Procedure: Hot Plate Test: Mice were placed on the hot plate (Bioseb), which was set to 55° C. and surrounded by a clear circular perimeter. Mouse activity was recorded using two cameras from different angles. The experiment ended when the mouse jumped to escape or 90 seconds had elapsed. Care was taken to clean and dry the hot plate apparatus between animals. For optogenetic experiments, mice were connected to patch cords and then returned to a holding cage. Illumination began 30 seconds before mice were placed on the hot plate.

mice [4] = experiment: Tail suspension test; format: in vivo, mouse; conditions: PCP 5 mg/kg
Procedure: Tail Suspension Test: Mouse activity was recorded using a 60 Hz web camera. Struggling activity was quantified for minutes 2-10. […] Illumination began 30 seconds before tails were secured with tape and suspended from the beam. Mice were excluded if they climbed on their own tails.

mice [5] = experiment: Resident-intruder social interaction assay; format: in vivo, mouse; conditions: PCP 5 mg/kg
Procedure: Social Interaction Assay: Resident-intruder social interaction was recorded for two minutes. Interactions were defined as close physical proximity behaviors, including sniffing, touching, and following. […] Illumination began 30 seconds before the same-sex intruder mouse was introduced.

Molecule | Cortical activity pattern: 1-3 Hz oscillation localized to retrosplenial cortex (RSP) [1] | Open-field locomotion velocity (mice [2]) | Dissociation-like behavior: disconnection between sensory-detection and affective responses (mice [3]) | Responsivity to salient stimuli (time-to-jump, rearing/socialization) (mice [3]; LSD 0.3 mg/kg) | Longer-timescale escape behavior (mice [4]) | Social behavior (mice [5])
CC(C)c1cccc(C(C)C)c1O [propofol] | elicited waves of cortical activity without RSP restriction | – | – | – | – | –
CN1C(=O)CN=C(c2ccccc2)c2cc(Cl)ccc21 [diazepam] | Neither the GABAergic sedative diazepam nor the centrally-acting opioid-analgesic buprenorphine elicited the rhythm | decreased velocity | did not recapitulate dissociative-like behavior | – | – | –
(+)-Lysergic acid diethylamide (+)-tartrate (2:1) [LSD] | did not elicit oscillation | reducing locomotion in the stimulus-poor open-field; also recorded: decreased velocity | disrupted neither sensory-detection nor affective responses | tended to increase responsivity to salient stimuli (decreased time-to-jump, increased rearing/socialization) | – | –
CC12CC3CC(C)(C1)CC(N)(C3)C2 [Memantine, memantine] | did not elicit oscillation | – | – | – | – | –
c1ccc(C2(N3CCCCC3)CCCCC2)cc1 [PCP, phencyclidine] | induced the RSP-localized oscillation | locomotion velocity was unchanged | recapitulated ketamine's behavioral disconnection between sensory-detection and affective responses in the hot-plate test | – | inhibited longer-timescale escape and social behaviors | inhibited longer-timescale escape and social behaviors
Cc1cccc([C@H](C)c2cnc[nH]2)c1C [dexmedetomidine] | elicited waves of cortical activity without RSP restriction | – | – | – | – | –
C[C@]12N[C@H](Cc3ccccc31)c1ccccc12 [MK-801] | induced the RSP-localized oscillation | – | – | – | – | –
